Experimental data reported in patent US20230043863A1, “HETEROAROMATIC DERIVATIVES FOR USE AS REGULATOR, PREPARATION METHOD THEREFOR AND USE THEREOF” (JIANGSU HANSOH PHARMACEUTICAL GROUP CO., LTD., priority 2018, published 2023).

Key:
[1] = system: JAK-STAT signal pathway of U266 cells; test: Inhibition of cellular JAK-STAT signal pathway (STAT3 phosphorylation) in U266 cells; format: cell-based, human; settings: Homo sapiens, U-266, INF-a 1000 U/mL stimulation
Description: The objective of the test is to test the inhibitory activity of the compound on the cellular JAK-STAT signaling pathway.
U266 cell line was used in this experiment, by activating the JAK-STAT signaling pathway through INF-a stimulation, the inhibitory activity of the compound on its downstream STAT3 phosphorylation was detected, and the half inhibitory concentration IC50 of the compound on the JAK-STAT signaling pathway activity was obtained.
3-12 μL of U266 cell line was spread into the 384-well detection plate, and the number of cells in each well was 100-300 K, followed by addition of 2 μL of the compound solution serially diluted. The plate was incubated for 2 hours with shaking at 350 rpm at room temperature. After 2 hours, 2 μL of INF-a with a final concentration of 1000 U/mL was added. The plate was shaken at room temperature for 15 minutes. 2-5 μL (5×) LANCE Ultra Lysis Buffer 2 solution was added and the plate was shaken at room temperature for 2 hours. After 2 hours, 5 μL of LANCE Ultra Eu-labeled Anti-STAT3 Antibody (PerkinElmer) with a final concentration of 0.5 nM and LANCE Ultra ULight-labeled Anti-STAT3 Antibody (PerkinElmer) with a final concentration of 5 nM were added, and the plate was incubated overnight at room temperature. The fluorescence signal value at 665 nm of each well was measured with the microplate reader, and the inhibition rate was calculated from the fluorescence signal value. According to the inhibition rate of different concentrations, the IC50 of the compound was obtained by curve fitting.
(§1) The percentage inhibition data of the wells treated with the compound was calculated with the positive control wells (DMSO control wells) and negative control wells (no kinase added) on the plate {% inhibition rate=100-[(test compound value-negative control value)]/(Positive control value-negative control value)×100}. IC50 value was calculated by using GraphPad prism to fit the data of different concentrations and corresponding percentage inhibition rates to a 4-parameter non-linear logic formula.

[2] = target: JAK1 (Homo sapiens, UniProt P23458); test: JAK kinase activity inhibition, TR-FRET (JAK1); format: biochemical; settings: TR-FRET kinase assay
Chain of JAK1 (P23458 whole entry): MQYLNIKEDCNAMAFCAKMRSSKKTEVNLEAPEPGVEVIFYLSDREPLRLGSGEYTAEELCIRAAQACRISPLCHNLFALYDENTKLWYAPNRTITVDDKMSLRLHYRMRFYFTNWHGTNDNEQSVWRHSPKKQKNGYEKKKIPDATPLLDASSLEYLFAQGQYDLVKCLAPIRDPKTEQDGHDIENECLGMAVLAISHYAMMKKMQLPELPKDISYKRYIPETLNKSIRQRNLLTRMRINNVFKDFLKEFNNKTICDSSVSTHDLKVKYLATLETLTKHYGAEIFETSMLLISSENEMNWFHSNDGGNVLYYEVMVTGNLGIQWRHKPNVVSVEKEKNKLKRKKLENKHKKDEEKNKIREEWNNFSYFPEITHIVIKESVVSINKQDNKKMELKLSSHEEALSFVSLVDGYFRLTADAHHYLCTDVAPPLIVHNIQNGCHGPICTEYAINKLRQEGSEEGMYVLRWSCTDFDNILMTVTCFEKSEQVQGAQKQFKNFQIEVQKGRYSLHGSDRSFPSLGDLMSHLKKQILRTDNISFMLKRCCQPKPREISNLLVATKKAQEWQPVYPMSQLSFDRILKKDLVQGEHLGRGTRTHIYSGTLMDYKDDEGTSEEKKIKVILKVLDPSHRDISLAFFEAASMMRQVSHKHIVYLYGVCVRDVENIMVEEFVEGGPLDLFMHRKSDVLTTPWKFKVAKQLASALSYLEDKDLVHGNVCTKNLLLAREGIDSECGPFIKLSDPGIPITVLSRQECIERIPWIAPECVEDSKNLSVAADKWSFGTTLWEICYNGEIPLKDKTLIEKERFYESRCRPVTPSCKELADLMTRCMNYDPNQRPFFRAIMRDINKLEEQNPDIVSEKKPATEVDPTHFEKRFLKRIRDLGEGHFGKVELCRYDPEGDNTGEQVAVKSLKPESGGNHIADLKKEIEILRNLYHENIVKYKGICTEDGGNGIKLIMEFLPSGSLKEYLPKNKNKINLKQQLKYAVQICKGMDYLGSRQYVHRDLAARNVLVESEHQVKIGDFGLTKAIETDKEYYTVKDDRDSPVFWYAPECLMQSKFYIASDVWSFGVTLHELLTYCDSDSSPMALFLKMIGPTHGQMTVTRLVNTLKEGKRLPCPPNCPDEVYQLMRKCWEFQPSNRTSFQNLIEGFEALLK
Description: (§2) Experimental objective: The objective of this test is to test the inhibitory effect of the compound on JAK kinase activity.
(§3) Experimental method: the fluorescence resonance energy transfer (TR-FRET) method was used to test the inhibitory effect of the compound on JAK kinase activity, and the half inhibitory concentration IC50 of the compound on JAK kinase activity was obtained.
(§4) Kinase reaction was carried out in a white 384-well plate (PerkinElmer). 1-5 μL of different concentrations of the compound diluted with DMSO and ddH2O was added into each well, and 1-5 μL of the corresponding solvent was added to the positive control wells, followed by addition of 0.1-20 nM JAK kinase solution diluted with 1-5 μL of kinase buffer (HEPES 50-250 mM, MgCl2 5-20 mM, etc.) was added to each well. 1-5 μL of kinase buffer was added to the negative control well. 1-5 μL of substrate mixture containing peptide substrate and ATP was added. The plate was incubated at room temperature for 0.5-5 hours. […], EDTA and detection solution containing labeled antibody was added, and then the plate was incubated at room temperature for another 1-24 hours. The fluorescence signal value at about 620 nm and 665 nm of each well was measured by BioTek Synergy H1 plate reader, and the inhibition rate was calculated by the fluorescence signal value. According to the inhibition rate of different concentrations, the IC50 of the compound was obtained by curve fitting.
as §1

[3] = target: TYK2 (Homo sapiens, UniProt P29597); test: JAK kinase activity inhibition, TR-FRET (TYK2); format: biochemical; settings: TR-FRET kinase assay
Chain of TYK2 (P29597 whole entry): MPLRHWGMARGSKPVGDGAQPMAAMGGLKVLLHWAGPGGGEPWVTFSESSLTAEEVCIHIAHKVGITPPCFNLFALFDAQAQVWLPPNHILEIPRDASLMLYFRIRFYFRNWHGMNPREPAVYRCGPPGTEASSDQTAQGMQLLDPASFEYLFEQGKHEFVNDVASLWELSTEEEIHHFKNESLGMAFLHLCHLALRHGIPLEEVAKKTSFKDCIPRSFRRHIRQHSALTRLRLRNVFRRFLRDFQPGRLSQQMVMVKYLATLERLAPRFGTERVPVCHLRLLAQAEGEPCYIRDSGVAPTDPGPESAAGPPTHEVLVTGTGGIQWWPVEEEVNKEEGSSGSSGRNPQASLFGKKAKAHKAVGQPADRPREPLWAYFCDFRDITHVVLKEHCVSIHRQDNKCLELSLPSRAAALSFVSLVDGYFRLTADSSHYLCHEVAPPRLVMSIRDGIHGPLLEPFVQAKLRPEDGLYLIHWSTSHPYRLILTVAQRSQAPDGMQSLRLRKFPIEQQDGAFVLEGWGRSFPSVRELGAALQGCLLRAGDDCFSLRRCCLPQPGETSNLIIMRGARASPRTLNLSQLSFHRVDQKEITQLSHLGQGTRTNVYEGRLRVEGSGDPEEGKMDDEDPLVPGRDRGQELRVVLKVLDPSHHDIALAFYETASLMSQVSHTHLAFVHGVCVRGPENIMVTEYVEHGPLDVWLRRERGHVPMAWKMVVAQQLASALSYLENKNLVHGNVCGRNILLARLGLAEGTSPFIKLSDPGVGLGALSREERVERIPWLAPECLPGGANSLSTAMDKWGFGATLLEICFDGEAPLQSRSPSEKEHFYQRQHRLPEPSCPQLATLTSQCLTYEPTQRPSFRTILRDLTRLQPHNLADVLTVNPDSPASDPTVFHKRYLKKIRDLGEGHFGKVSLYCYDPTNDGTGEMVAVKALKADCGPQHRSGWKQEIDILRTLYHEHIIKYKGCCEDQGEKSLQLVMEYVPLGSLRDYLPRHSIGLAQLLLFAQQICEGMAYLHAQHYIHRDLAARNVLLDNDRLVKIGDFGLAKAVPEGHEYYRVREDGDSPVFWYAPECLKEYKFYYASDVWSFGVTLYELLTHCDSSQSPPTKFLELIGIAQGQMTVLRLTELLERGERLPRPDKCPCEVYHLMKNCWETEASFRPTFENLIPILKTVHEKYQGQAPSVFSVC
Description: as §2, §3, §4, §1

Compound	IC50 [2] [nM]	IC50 [3] [nM]	IC50 [1] [nM]
Cc1cc(Nc2nc(N[C@@H]3C[C@H]4CCC[C@@H](C3)N4S(=O)(=O)c3cccnc3)nc3sccc23)n[nH]1 [Embodiment 268]	0.21	0.19	42.9
Cc1cc(Nc2nc(N[C@@H]3C[C@H]4CCC[C@@H](C3)N4Cc3ccccn3)nc3sccc23)n[nH]1 [Embodiment 271]	0.05	4.91	1.49
Cc1cc2nc(N[C@@H]3C[C@H]4CCC[C@@H](C3)N4CCC#N)nc(Nc3cc(CO)[nH]n3)c2s1 [Embodiment 294]	0.64	0.23	15.3
Cc1cc(Nc2nc(N[C@@H]3C[C@H]4CCC[C@@H](C3)N4C(=O)c3cn(C)cn3)nc3sccc23)n[nH]1 [Embodiment 264, (1-methyl-1H-imidazol-4-yl) ((3-exo)-3-((4-((5-methyl-1H-pyrazol-3-yl)amino)thieno[2,3-d]pyrimidin-2-yl)amino)-9-azabicyclo[3.3.1]non-9-yl)methanone]	0.19	0.48	33.5
Cc1cc(Nc2nc(N[C@@H]3C[C@H]4CC[C@@H](C3)N4CCC#N)nc3scnc23)n[nH]1 [Embodiment 66, 3-((3-exo)-3-((7-((5-methyl-1H-pyrazol-3-yl)amino)thiazolo[5,4-d]pyrimidin-5-yl)amino)-8-azabicyclo[3.2.1]oct-8-yl)propionitrile]	3.02	1.49	4.06
Cc1cc(Nc2nc(N[C@@H]3C[C@H]4CCC[C@@H](C3)N4C(=O)[C@H]3COCCN3)nc3sccc23)n[nH]1 [Embodiment 250, ((3-exo)-3-((4-((5-methyl-1H-pyrazol-3-yl)amino)thieno[2,3-d]pyrimidin-2-yl)amino)-9-azabicyclo[3.3.1]non-9-yl)((R)-morpholine-3-yl)methanone]	0.04	0.07	7.3
Cc1cc(Nc2nc(N[C@@H]3C[C@H]4CC[C@@H](C3)N4C(=O)[C@H]3CCCN3)nc3sccc23)n[nH]1 [Embodiment 248, ((3-exo)-3-((4-((5-methyl-1H-pyrazol-3-yl)amino)thieno[2,3-d]pyrimidin-2-yl)amino)-9-azabicyclo[3.3.1]non-9-yl) ((R)-pyrrolidin-2-yl)methanone]	0.44	0.36	43.5
Cc1cc(Nc2nc(N[C@@H]3C[C@H]4CCC[C@@H](C3)N4CC(=O)N(C)C)nc3sccc23)n[nH]1 [Embodiment 270, N,N-dimethyl-2-((3-exo)-3-((4-((5-methyl-1H-pyrazol-3-yl)amino)thieno[2,3-d]pyrimidin-2-yl)amino)-9-azabicyclo[3.3.1]non-9-yl)acetamide]	1.22	5.78	14.3
CCNCC(=O)N1[C@@H]2CC[C@H]1C[C@H](Nc1nc(Nc3cc(C)[nH]n3)c3ccsc3n1)C2 [Embodiment 255, 2-(ethylamino)-1-((3-exo)-3-((4-((5-methyl-1H-pyrazol-3-yl)amino)thieno[2,3-d]pyrimidin-2-yl)amino)-8-azabicyclo[3.2.1]oct-8-yl)ethane-1-one]	1.17	2.38	8.67
CN(c1nc(Nc2cc(CO)[nH]n2)c2ccc(Cl)cc2n1)[C@@H]1C[C@H]2CCC[C@@H](C1)N2CCC#N [Embodiment 235, 3-((3-exo)-3-((7-chloro-4-((5-(hydroxymethyl)-1H-pyrazol-3-yl)amino)quinazolin-2-yl)(methyl)amino)-9-azabicyclo[3.3.1]non-9-yl)propionitrile]	3.33	2.71	44.4
O=C(CN1CCCCC1)N1[C@@H]2CC[C@H]1C[C@H](Nc1nc(Nc3ncc(CO)s3)cc3ncccc13)C2 [Embodiment 165, 1-((3-exo)-3-((7-((5-(hydroxymethyl)thiazol-2-yl)amino)-1,6-diazanaphthalen-5-yl)amino)-8-azabicyclo[3.2.1]oct-8-yl)-2-(piperidin-1-yl)ethane-1-one]	4.92	> 100	–
O=C(CN1CCCC1)N1[C@@H]2CCC[C@H]1C[C@H](Nc1nc(Nc3ncc(CO)s3)cc3ncccc13)C2 [Embodiment 164, 1-((3-exo)-3-((7-((5-(hydroxymethyl)thiazol-2-yl)amino)-1,6-diazanaphthalen-5-yl)amino)-9-azabicyclo[3.3.1]non-9-yl)-2-(pyrrolidin-1-yl)ethane-1-one]	0.85	16.6	–
Cc1cc(Nc2nc(N[C@@H]3C[C@H]4CC[C@@H](C3)N4CCC#N)c3cccnc3n2)n[nH]1 [Embodiment 90, 3-((3-exo)-3-((2-((5-methyl-1H-pyrazol-3-yl)amino)pyrido[2,3-d]pyrimidin-4-yl)amino)-8-azabicyclo[3.2.1]oct-8-yl)propionitrile]	7.23	21.6	–
Cc1cc(Nc2nc(N[C@@H]3C[C@H]4CC[C@@H](C3)N4CCC#N)c3cc[nH]c3n2)n[nH]1 [Embodiment 39, 3-((3-exo)-3-((2-((5-methyl-1H-pyrazol-3-yl)amino)-7H-pyrrolo[2,3-d]pyrimidin-4-yl)amino)-8-azabicyclo[3.2.1]oct-8-yl)propionitrile]	2.94	9.49	–
Cn1cnc(Nc2cc3ncccc3c(N[C@@H]3C[C@H]4CC[C@@H](C3)N4CCC#N)n2)c1 [Embodiment 25, 3-((3-exo)-3-((7-((1-methyl-1H-imidazol-4-yl)amino)-1,6-diazanaphthalen-5-yl)amino)-8-azabicyclo[3.2.1]oct-8-yl)propionitrile]	1.63	4.57	–

Further lines, with some results ahead:

IC50 [2] [nM]	IC50 [3] [nM]	Compound	IC50 [1] [nM]
2.63	9.99	Cc1cc(Nc2nc(N[C@@H]3C[C@H]4CC[C@@H](C3)N4C(=O)c3ccncc3)nc3ccccc23)n[nH]1 [Embodiment 228, ((3-exo)-3-((4-((5-methyl-1H-pyrazol-3-yl)amino)quinazolin-2-yl)amino)-8-azabicyclo[3.2.1]oct-8-yl)(pyridin-4-yl)methanone]	–
4.18	2.36	Cc1cc(Nc2nc(N[C@@H]3C[C@H]4CC[C@@H](C3)N4CCC#N)nc3c(C)cccc23)n[nH]1 [Embodiment 176, 3-((3-exo)-3-((8-methyl-4-((5-methyl-1H-pyrazol-3-yl)amino)quinazolin-2-yl)amino)-8-azabicyclo[3.2.1]oct-8-yl)propionitrile]	–
0.18	0.1	COc1ccc(-c2ccc3c(Nc4cc(C)[nH]n4)nc(N[C@@H]4C[C@H]5CC[C@@H](C4)N5CCC#N)nc3c2)cn1 [Embodiment 183, 3-((3-exo)-3-((7-(6-methoxylpyridin-3-yl)-4-((5-methyl-1H-pyrazol-3-yl)amino)quinazolin-2-yl)amino)-8-azabicyclo[3.2.1]oct-8-yl)propionitrile]	–
10.6	> 100	Cc1cc(Nc2nc(N[C@@H]3C[C@H]4CC[C@@H](C3)N4CCC#N)nc3ccc(Cl)cc23)n[nH]1 [Embodiment 178, 3-((3-exo)-3-((6-chloro-4-((5-methyl-1H-pyrazol-3-yl)amino)quinazolin-2-yl)amino)-8-azabicyclo[3.2.1]oct-8-yl)propionitrile]	–
112	7.11	Cc1cc(Nc2nc(N[C@@H]3C[C@H]4CC[C@@H](C3)N4CCF)nc3ccccc23)n[nH]1 [Embodiment 234]	–
8.81	4.77	CN(c1nc(Nc2cc(CO)[nH]n2)c2ccc(Cl)cc2n1)[C@@H]1C[C@H]2CC[C@@H](C1)N2CCC#N [Embodiment 236, 3-((3-exo)-3-((7-chloro-4-((5-(hydroxymethyl)-1H-pyrazol-3-yl)amino)quinazolin-2-yl)(methyl)amino)-8-azabicyclo[3.2.1]oct-8-yl)propionitrile]	–
1.76	> 100	Cc1cc(Nc2nc(N[C@@H]3C[C@H]4CC[C@@H](C3)N4C(=O)CN(C)C)nc3cc(Cl)ccc23)n[nH]1 [Embodiment 224]	–
